Test [1] has as its target Histamine H3 receptor (Homo sapiens, UniProt Q9Y5N1).
The target of test [2] is D(1A) dopamine receptor (Homo sapiens, UniProt P21728).
In test [3] the target is cGMP-inhibited 3',5'-cyclic phosphodiesterase 3A (Homo sapiens, UniProt Q14432). Format: functional.
The target in test [4] is Mu-type opioid receptor (Homo sapiens, UniProt P35372).
In test [5] the target is 5-hydroxytryptamine receptor 2B (Homo sapiens, UniProt P41595). The format is functional, cell-based.
The target of test [6] is T1, Prostaglandin G/H synthase 1 (Homo sapiens, UniProt P23219). Format: functional.
The target of test [7] is T2, Adenosine receptor A3 (Homo sapiens, UniProt P0DMS8).
T2 sequence (P0DMS8 whole entry): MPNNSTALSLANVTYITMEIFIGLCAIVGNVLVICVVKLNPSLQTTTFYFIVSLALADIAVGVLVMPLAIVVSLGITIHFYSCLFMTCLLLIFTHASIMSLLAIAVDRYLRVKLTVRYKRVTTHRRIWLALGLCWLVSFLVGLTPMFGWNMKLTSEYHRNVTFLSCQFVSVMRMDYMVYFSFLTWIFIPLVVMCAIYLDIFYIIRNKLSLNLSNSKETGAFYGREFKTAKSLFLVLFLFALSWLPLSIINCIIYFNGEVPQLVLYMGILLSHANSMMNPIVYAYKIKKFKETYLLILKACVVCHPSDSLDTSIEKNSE

Test [8] has as its target Vascular endothelial growth factor receptor 2 (Homo sapiens, UniProt P35968). Format: functional.
In test [9] the target is T1, Prostaglandin G/H synthase 1. The format is functional. The source holds these as a separate data set.
Test [10] addresses T3, Alpha-1A adrenergic receptor (Homo sapiens, UniProt P35348).
T3 sequence (P35348 whole entry): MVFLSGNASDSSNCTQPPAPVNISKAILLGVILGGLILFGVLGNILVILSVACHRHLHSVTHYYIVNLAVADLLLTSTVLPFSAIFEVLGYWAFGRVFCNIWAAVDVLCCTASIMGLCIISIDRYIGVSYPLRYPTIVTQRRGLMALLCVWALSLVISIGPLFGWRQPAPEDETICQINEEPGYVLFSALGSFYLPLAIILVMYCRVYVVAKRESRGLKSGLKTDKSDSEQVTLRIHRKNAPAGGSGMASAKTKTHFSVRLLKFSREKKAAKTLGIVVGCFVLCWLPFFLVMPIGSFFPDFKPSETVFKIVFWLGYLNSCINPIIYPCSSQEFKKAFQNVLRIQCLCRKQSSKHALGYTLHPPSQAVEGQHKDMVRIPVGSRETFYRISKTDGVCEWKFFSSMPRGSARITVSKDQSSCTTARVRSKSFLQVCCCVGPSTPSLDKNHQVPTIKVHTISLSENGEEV
Format: functional, cell-based.

Test [11] has as its target Sodium-dependent noradrenaline transporter (Homo sapiens, UniProt P23975).
The target of test [12] is Acetylcholinesterase (Homo sapiens, UniProt P22303). The format is functional.
For test [13], the target named is T4, Amine oxidase [flavin-containing] A (Homo sapiens, UniProt P21397).
T4 sequence (P21397 whole entry): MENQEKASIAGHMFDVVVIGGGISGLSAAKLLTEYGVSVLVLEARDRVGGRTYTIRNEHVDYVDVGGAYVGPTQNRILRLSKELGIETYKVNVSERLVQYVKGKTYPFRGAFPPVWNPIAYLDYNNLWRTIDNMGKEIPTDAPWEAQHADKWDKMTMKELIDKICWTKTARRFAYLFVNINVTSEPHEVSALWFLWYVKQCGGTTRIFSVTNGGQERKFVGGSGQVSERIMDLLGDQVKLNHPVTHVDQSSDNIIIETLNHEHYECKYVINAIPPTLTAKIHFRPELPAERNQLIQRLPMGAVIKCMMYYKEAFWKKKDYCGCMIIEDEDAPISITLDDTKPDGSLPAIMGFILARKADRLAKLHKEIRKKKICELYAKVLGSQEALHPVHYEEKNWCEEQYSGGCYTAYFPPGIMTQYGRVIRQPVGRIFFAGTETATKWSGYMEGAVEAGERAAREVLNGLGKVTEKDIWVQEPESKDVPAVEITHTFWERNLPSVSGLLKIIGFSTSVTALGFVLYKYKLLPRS
Format: functional.

Test [14] concerns the target Sodium-dependent serotonin transporter (Homo sapiens, UniProt P31645).
Test [15] addresses T5, Progesterone receptor (Homo sapiens, UniProt P06401).
T5 sequence (P06401 whole entry): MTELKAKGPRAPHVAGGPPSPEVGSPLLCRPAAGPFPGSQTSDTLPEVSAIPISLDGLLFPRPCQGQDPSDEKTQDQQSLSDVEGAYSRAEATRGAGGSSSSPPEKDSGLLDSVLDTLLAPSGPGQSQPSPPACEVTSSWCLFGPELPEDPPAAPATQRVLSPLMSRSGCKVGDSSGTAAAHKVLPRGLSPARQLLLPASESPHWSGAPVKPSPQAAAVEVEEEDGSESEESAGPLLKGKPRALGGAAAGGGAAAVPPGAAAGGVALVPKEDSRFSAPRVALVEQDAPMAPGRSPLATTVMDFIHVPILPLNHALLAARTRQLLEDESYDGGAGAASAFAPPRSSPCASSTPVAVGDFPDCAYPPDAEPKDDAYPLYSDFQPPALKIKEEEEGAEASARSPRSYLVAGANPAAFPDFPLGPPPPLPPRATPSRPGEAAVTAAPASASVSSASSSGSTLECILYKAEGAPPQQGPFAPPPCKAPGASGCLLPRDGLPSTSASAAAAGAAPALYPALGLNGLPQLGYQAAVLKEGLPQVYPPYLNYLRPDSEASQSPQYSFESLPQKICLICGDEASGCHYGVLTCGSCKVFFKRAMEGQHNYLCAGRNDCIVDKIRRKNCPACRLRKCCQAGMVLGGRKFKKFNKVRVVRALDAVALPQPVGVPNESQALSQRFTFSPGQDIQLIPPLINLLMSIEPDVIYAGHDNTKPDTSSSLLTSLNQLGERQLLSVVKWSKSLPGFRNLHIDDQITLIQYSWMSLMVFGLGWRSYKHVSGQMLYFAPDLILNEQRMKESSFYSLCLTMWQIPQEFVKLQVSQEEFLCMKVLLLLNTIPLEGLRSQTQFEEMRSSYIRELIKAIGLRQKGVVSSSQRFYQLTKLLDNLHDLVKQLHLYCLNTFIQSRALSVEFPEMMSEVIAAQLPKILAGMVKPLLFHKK

A word on the AC50: it is the concentration at which the activity in the assay is half-maximal.
Also: assay procedure not described here.

Sodium-dependent noradrenaline transporter, sequence (P23975 whole entry): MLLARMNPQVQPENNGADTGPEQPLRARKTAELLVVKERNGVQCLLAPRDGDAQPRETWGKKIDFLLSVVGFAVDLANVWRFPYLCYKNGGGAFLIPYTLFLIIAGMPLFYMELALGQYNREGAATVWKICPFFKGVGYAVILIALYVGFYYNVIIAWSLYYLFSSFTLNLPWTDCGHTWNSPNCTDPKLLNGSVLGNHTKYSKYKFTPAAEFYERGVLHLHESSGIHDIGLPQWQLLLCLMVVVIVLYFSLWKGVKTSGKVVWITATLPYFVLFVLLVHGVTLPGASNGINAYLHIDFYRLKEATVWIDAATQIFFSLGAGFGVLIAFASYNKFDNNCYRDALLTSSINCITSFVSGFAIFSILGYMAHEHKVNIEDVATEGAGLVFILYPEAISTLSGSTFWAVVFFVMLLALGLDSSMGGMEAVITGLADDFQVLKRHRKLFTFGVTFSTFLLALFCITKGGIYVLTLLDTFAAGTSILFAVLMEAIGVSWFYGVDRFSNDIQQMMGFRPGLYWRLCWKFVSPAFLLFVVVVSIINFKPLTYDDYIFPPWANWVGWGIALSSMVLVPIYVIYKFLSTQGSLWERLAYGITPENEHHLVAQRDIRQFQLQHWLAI
Histamine H3 receptor, sequence (Q9Y5N1 whole entry): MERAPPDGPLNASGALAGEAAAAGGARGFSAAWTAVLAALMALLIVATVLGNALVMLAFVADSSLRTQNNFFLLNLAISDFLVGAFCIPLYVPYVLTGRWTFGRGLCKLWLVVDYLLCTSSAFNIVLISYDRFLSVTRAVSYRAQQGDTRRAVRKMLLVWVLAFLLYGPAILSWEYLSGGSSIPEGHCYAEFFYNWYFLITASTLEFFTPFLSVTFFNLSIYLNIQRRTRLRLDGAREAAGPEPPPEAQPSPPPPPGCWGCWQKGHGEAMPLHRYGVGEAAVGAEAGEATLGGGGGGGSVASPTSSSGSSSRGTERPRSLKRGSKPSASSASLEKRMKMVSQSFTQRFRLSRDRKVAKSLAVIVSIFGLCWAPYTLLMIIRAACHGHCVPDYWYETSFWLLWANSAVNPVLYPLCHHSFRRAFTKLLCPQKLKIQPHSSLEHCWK
5-hydroxytryptamine receptor 2B, sequence (P41595 whole entry): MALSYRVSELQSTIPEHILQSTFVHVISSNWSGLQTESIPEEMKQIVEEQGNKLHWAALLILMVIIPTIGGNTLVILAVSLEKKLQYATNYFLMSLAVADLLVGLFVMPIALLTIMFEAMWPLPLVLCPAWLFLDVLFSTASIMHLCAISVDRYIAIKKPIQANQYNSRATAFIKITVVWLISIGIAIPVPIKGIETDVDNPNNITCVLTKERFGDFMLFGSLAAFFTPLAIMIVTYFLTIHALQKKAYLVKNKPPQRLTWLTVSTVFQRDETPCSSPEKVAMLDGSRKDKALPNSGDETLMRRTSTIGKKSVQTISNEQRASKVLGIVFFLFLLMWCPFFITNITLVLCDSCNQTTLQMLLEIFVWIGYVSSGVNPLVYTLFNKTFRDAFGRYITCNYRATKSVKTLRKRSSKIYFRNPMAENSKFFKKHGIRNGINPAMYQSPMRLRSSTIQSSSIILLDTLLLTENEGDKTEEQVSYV
cGMP-inhibited 3',5'-cyclic phosphodiesterase 3A, sequence (Q14432 whole entry): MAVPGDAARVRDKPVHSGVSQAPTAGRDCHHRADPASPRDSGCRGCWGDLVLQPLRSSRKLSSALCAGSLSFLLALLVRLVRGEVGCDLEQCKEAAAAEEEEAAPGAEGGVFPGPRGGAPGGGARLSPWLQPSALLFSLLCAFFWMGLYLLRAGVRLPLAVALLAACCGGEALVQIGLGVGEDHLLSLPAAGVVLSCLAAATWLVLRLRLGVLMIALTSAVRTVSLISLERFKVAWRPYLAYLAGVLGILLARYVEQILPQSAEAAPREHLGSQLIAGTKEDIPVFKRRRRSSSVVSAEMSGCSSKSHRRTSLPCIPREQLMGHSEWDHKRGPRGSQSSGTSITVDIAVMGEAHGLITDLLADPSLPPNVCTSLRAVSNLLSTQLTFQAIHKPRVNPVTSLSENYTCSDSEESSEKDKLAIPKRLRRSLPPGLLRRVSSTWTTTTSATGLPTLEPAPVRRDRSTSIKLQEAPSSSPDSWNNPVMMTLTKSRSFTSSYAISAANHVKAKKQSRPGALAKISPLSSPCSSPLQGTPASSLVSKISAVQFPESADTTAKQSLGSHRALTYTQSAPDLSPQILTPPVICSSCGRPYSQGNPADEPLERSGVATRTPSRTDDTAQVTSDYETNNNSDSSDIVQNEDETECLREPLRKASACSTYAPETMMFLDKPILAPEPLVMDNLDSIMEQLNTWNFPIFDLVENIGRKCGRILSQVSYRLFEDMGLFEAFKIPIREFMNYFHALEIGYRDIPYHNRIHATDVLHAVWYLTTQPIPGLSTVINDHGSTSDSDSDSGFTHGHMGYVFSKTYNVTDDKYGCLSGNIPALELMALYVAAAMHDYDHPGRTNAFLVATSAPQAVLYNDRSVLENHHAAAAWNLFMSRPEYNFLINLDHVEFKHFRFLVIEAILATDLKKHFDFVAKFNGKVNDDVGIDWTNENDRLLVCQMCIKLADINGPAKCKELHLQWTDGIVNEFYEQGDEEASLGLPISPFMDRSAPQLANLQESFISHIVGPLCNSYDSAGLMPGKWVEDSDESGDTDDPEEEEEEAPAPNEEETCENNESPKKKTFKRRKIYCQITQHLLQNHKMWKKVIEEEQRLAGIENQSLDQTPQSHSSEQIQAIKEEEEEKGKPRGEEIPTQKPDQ
Acetylcholinesterase, sequence (P22303 whole entry): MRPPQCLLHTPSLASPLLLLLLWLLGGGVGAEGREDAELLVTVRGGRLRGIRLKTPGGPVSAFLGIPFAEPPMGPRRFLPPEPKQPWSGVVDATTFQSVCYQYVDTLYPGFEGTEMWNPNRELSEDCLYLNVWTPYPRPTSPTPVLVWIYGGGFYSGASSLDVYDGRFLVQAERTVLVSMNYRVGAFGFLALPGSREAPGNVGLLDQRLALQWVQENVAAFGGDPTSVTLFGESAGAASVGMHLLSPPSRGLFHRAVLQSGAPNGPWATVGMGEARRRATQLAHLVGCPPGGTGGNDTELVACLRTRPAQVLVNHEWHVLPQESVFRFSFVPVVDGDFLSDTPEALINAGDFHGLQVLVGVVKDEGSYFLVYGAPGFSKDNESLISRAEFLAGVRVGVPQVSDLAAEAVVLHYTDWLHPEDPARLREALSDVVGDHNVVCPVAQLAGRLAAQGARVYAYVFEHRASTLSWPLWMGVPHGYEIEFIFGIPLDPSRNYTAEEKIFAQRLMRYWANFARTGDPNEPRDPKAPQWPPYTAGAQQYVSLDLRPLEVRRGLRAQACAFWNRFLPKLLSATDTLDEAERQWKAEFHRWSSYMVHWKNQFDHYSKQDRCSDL
Vascular endothelial growth factor receptor 2, sequence (P35968 whole entry): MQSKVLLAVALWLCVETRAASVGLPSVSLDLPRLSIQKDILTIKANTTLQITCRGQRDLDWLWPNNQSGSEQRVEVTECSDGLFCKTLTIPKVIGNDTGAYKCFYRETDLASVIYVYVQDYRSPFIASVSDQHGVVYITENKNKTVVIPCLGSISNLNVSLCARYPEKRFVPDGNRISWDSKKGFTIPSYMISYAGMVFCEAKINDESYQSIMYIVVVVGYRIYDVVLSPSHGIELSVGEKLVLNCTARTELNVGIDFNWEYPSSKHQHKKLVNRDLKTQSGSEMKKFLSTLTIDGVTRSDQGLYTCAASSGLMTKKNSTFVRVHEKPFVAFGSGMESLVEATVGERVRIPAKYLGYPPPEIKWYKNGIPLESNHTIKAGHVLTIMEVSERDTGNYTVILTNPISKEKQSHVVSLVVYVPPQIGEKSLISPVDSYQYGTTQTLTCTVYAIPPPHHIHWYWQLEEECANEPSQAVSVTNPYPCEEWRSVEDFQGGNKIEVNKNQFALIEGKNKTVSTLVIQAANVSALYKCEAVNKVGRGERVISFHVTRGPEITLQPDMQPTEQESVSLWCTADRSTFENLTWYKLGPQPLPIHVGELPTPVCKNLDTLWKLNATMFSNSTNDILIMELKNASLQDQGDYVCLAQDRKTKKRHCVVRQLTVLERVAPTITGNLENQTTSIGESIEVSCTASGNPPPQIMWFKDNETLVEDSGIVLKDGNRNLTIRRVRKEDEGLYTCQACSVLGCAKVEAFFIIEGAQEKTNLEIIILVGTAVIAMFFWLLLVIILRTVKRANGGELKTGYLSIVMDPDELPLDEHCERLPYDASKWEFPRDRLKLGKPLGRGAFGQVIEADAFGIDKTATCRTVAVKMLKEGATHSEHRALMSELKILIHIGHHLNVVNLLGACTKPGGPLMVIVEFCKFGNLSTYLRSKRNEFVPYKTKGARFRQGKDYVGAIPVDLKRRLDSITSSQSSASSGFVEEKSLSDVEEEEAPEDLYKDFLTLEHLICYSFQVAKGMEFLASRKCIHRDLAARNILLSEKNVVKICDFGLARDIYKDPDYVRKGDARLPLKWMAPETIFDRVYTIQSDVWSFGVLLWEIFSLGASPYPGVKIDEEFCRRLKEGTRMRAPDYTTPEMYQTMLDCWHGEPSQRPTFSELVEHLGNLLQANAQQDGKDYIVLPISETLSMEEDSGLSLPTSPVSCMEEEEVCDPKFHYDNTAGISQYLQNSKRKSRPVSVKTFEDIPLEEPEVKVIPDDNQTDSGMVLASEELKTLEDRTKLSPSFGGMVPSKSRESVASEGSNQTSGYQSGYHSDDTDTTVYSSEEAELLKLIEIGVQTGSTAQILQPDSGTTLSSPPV
Mu-type opioid receptor, sequence (P35372 whole entry): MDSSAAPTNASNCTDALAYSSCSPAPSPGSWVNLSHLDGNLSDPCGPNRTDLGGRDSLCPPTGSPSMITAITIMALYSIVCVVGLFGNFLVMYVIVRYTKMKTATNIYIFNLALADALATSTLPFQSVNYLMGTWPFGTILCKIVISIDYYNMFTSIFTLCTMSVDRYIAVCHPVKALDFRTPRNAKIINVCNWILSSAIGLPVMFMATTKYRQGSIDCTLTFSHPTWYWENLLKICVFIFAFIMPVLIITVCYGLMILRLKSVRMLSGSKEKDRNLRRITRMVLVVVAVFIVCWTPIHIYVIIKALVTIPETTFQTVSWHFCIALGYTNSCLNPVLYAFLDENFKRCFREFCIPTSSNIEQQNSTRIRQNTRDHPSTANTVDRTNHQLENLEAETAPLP

For the compound `Cc1cc(OP(=O)(O)O)c2ccccc2c1OP(=O)(O)O` [MENADIOL SODIUM DIPHOSPHATE], the half-maximal activity concentration (AC50) in test [1], in [2], in test [3], in test [4], in test [5] and in test [6] was more than 30 µM each time. In addition, the AC50 in test [7], in test [8], in test [9], in test [10], in test [11] and in test [12] was more than 30 µM each time. Moreover, the AC50 in test [13], in [14] and in [15] was more than 30 µM each time.
With `Cc1ccccc1OCC(O)CO` (stereo not given) [MEPHENESIN], the AC50 in test [1], in test [2], in test [3], in test [4], in [5] and in test [6] was more than 30 µM in each case. Further, the AC50 in test [7], in [8], in test [9], in test [10], in test [11] and in test [12] was more than 30 µM in each case. In addition, the AC50 in [13], in test [14] and in test [15] was more than 30 µM throughout.
For `CCN(CC)CCc1nc(-c2ccccc2)no1` [OXOLAMINE], the AC50 in test [1] was 23.9 µM; in [2] it was more than 30 µM; in test [3], more than 30 µM; in test [4], more than 30 µM; in test [5], more than 30 µM; in test [6], more than 30 µM. The concentration at half-maximal activity (AC50) in test [7], in [8], in [9], in test [10], in [11] and in [12] was more than 30 µM in each case. Further, the AC50 in test [13], in test [14] and in test [15] was more than 30 µM in each case.
`C[N+]1(CCCCC[N+]2(C)CCCC2)CCCC1` [PENTOLINIUM]: the concentration at half-maximal activity (AC50) in [1], in test [2], in [3], in [4], in test [5] and in test [6] was more than 30 µM each time. The AC50 in test [7], in test [8], in test [9], in test [10], in [11] and in test [12] was more than 30 µM in each case. Also, the concentration at half-maximal activity (AC50) in test [13], in [14] and in test [15] was more than 30 µM in each case.
With `O=C(O)c1ccccc1C(=O)Nc1ccc(S(=O)(=O)Nc2nccs2)cc1` [PHTHALYLSULFATHIAZOLE], the AC50 in test [1] is more than 30 µM; in [2], more than 30 µM; in test [3], more than 30 µM; in test [4], more than 30 µM; in test [5], more than 30 µM; in [6] it was 8.95 µM. Also, the concentration at half-maximal activity (AC50) in test [7] was more than 30 µM; in [8], more than 30 µM; in test [9], 20 µM; in test [10], more than 30 µM; in [11], more than 30 µM; in test [12], more than 30 µM. Moreover, the half-maximal activity concentration (AC50) in test [13], in [14] and in test [15] was more than 30 µM throughout.
In the case of `CC(C)(C)C(=O)OCOC(=O)[C@@H]1N2C(=O)[C@@H](NC(=O)[C@H](N)c3ccccc3)[C@H]2SC1(C)C` [PIVAMPICILLIN], the concentration at half-maximal activity (AC50) is more than 30 µM in [1]; more than 30 µM in [2]; more than 30 µM in [3]; more than 30 µM in [4]; more than 30 µM in test [5]; 7.48 µM in [6]. In addition, the half-maximal activity concentration (AC50) in test [7], in test [8], in test [9], in [10], in test [11] and in test [12] was more than 30 µM in each case. Also, the concentration at half-maximal activity (AC50) in [13], in test [14] and in test [15] was more than 30 µM in each case.
On to `OC(CCN1CCCCC1)(c1ccccc1)c1ccccc1` [PRIDINOL], for which the AC50 is more than 30 µM in [1]; more than 30 µM in test [2]; more than 30 µM in [3]; 19.4 µM in test [4]; more than 30 µM in test [5]; more than 30 µM in test [6]. Besides, the concentration at half-maximal activity (AC50) in [7], in [8], in test [9], in test [10], in [11] and in test [12] was more than 30 µM throughout. The AC50 in test [13], in [14] and in test [15] was more than 30 µM each time.
On to `Nc1ccc2cc3ccc(N)cc3nc2c1` [PROFLAVINE], for which the AC50 is 16.3 µM in [1]; 10.6 µM in [2]; more than 30 µM in test [3]; 3.64 µM in test [4]; more than 30 µM in test [5]; 22.1 µM in [6]. For the same compound, the AC50 is 10.2 µM in [7]; 25.8 µM in [8]; 5.49 µM in test [9]; more than 0.3 µM in [10]; 2.69 µM in test [11]; 1.84 µM in [12]. The concentration at half-maximal activity (AC50) in test [13] was 0.786 µM; in test [14] it was 26.6 µM; in test [15], more than 30 µM.

(Values after ChEMBL document CHEMBL5291721, “A preclinical secondary pharmacology resource illuminates target-adverse drug reaction associations of marketed drugs” (Nat Commun, 2023).)
